# Measured values from patent publication US4048299A, “Anticaries confectionaries and oral health products” (William Wrigley, Jr. Co., priority 1970, dated 1977).
# Assays:
# L. casei = assay: Growth inhibition of oral microorganisms in vitro, pour plates; assay type: cell-based, Lactobacillus casei; conditions: Table IX; for Bacterial Population, Experimental: control 8 × 10^8 to 1 × 10^9; for Inhibition (growth): pour plates incubated 48 - 72 hours
# Experimental: (§1) (a)Determined on freshly grown pure cultures. Pour plates were incubated
# Streptococcus spp. FA-1 = assay: as above; assay type: cell-based; conditions: Table IX; for Bacterial Population, Experimental: control 2 × 10^8 to 5 × 10^8; for Inhibition (growth): pour plates incubated 48 - 72 hours
# Experimental: as §1
# [1] = test system: Lactobacillus casei and Streptococcus sp. FA-1; assay: Acid-production inhibition by broth-tube assay, 0.1 percent of compound; assay type: cell-based; conditions: for inhibition at 0.1 %: Table X, 0.1 percent of compound, read-out: Activity, Acid-Production Inhibition%
# Experimental: ^(a) Activity was measured by broth-tube assay to determine percent
# (§2) acid-production inhibition obtained by Lactobacillus casei and
# Streptococcus sp. FA-1 in the presence of 0.1 percent of compound.
# ^(a) Activity was measured by broth-tube assay to determine percent o
# as §2
# Streptococcus sp. FA-1 in the presence of 0.1% of compound. Symbols
# [2] = In vivo caries evaluation, laboratory animals (summary); conditions: one percent level in diet
# Excerpt: (§3) Standard laboratory techniques were used to complie the data presented. In each case the aldehyde was incorporated into each specimen's food in a one percent, by weight, quantity, over a period of several weeks. In all cases, caries reduction was noted.
# (§4) The aldehydes tested in vivo were pyruvaldehyde, d,1-glyceraldehyde, crystalline dimer, glycolaldehyde, octanaldehyde, nonanaldehyde, decanaldehyde, undecylenic aldehyde, and lauric aldehyde. The polyaldehydes tested were dialdehyde starch, dialdehyde starch 50 percent oxidized, dialdehyde starch 90 percent oxidized, and dialdehyde galactomannan gum.
# [3] = In vivo caries evaluation, Osborne-Mendel strain 1 rat; parameters: species or system rat (Osborne-Mendel strain 1); Caries Score, Mean Incidence / Caries Score, Mean Extent: scale not given here; conditions: Table II, 90 days; for Caries Score, Mean Incidence / Caries Score, Mean Extent: 1 percent in diet; for Caries Score, Mean Incidence: RCD control 19.0 (octan-), 14.1 (nonan-), 17.6 (decan-), 22.3 (undecylenic); for Caries Score, Mean Extent: RCD control 49.6 (octan-), 34.3 (nonan-), 46.0 (decan-), 54.6 (undecylenic); for Caries Extent Reduction, statistical evaluation / Caries Incidence Reduction, statistical evaluation: Student's test, 95 percent confidence limit
# Excerpt: as §3, §4
# (§5) ^(a) Agents were incorporated in the diet at a 1 percent level.
# [4] = In vivo caries evaluation, albino hamster; conditions: Table II, 59 days
# Excerpt: as §3, §4, §5
# [5] = In vivo caries evaluation, Osborne-Mendel strain 2 rat; parameters: species or system rat (Osborne-Mendel strain 2); Caries Score, Mean Incidence / Caries Score, Mean Extent: scale not given here; conditions: Table II, 90 days
# Excerpt: as §3, §4, §5
# oral microorganisms [6] = assay: Growth inhibition in vitro (summary); assay type: cell-based; conditions: in words, summary of tables
# Experimental: (§6) Other in vitro evaluations utilized a broth tube analysis of representative anticaries aldehydes incorporated in the vehicles of this invention against cultures of acid producing microorganisms normally present in the mouth. Standard laboratory procedures were utilized throughout to evaluate the acid production inhibition and growth inhibition over the incubation time of up to 24 hours.
# oral microorganisms [7] = assay: Acid production inhibition in vitro (summary); assay type: cell-based; conditions: in words, summary of tables
# Experimental: as §6
# [8] = Student's test, 95 percent confidence limit
compound,measurement,setting,value
CCCCCCCCCC(C)C=O (stereo not drawn) [Methylnonylacetaldehyde],"Bacterial Population, Experimental",L. casei,< 1 × 10^3
same,Inhibition (growth),L. casei,> 99.99%
same,"Bacterial Population, Experimental",Streptococcus spp. FA-1,0
same,Inhibition (growth),Streptococcus spp. FA-1,100%
same,inhibition at 0.1 %,[1],90 to 98%
CCCCCCCCC=O [Nonanaldehyde],"Bacterial Population, Experimental",L. casei,4 × 10^4
same,Inhibition (growth),L. casei,> 99.99%
same,Anticaries effect in laboratory animals,[2],significant anticaries activity
same,"Caries Score, Mean Incidence",[3],5.1
same,"Caries Score, Mean Extent",[3],10.2
same,"Caries Extent Reduction, statistical evaluation",[3],Significant
same,"Caries Incidence Reduction, statistical evaluation",[3],Significant
same,"Bacterial Population, Experimental",Streptococcus spp. FA-1,0
same,Inhibition (growth),Streptococcus spp. FA-1,100%
same,inhibition at 0.1 %,[1],99 to 100%
CCCCCCCC=O [Octanaldehyde],"Bacterial Population, Experimental",L. casei,2 × 10^7
same,Inhibition (growth),L. casei,97%
same,Anticaries effect in laboratory animals,[2],significant anticaries activity
same,"Caries Score, Mean Incidence",[3],9.8
same,"Caries Score, Mean Extent",[3],20.4
same,"Caries Extent Reduction, statistical evaluation",[3],Significant
same,"Caries Incidence Reduction, statistical evaluation",[3],Significant
same,"Caries Score, Mean Incidence","[4]; 1 percent in diet, L2000 control 39.3",18.6
same,"Caries Score, Mean Extent","[4]; 1 percent in diet, L2000 control 117.6",53.8
same,"Caries Extent Reduction, statistical evaluation",[4]; [8],Significant
same,"Caries Incidence Reduction, statistical evaluation",[4]; [8],Significant
same,"Caries Score, Mean Incidence","[5]; 1 percent in diet, L2000 control 17.4",2.9
same,"Caries Score, Mean Extent","[5]; 1 percent in diet, L2000 control 31.3",4.1
same,"Caries Extent Reduction, statistical evaluation",[5]; [8],Significant
same,"Caries Incidence Reduction, statistical evaluation",[5]; [8],Significant
same,"Bacterial Population, Experimental",Streptococcus spp. FA-1,9 × 10^3
same,Inhibition (growth),Streptococcus spp. FA-1,> 99.99%
same,inhibition at 0.1 %,[1],99 to 100%
O=CCCC=O [Succinic dialdehyde],"Activity, Acid-Production Inhibition, %","[1]; Table XII, 0.1% of compound",++++ (99 to 100)
CC=CCCCCCCCC=O [Undecylenic aldehyde],"Bacterial Population, Experimental",L. casei,1 × 10^2
same,Inhibition (growth),L. casei,> 99.99%
same,Anticaries effect in laboratory animals,[2],significant anticaries activity
same,"Caries Score, Mean Incidence",[3],7.4
same,"Caries Score, Mean Extent",[3],16.4
same,"Caries Extent Reduction, statistical evaluation",[3],Significant
same,"Caries Incidence Reduction, statistical evaluation",[3],Significant
same,"Bacterial Population, Experimental",Streptococcus spp. FA-1,0
same,Inhibition (growth),Streptococcus spp. FA-1,100%
same,inhibition at 0.1 %,[1],99 to 100%
CCCCCCCCCCC=O [Undecylic aldehyde],"Bacterial Population, Experimental",L. casei,5 × 10^4
same,Inhibition (growth),L. casei,> 99.99%
same,"Bacterial Population, Experimental",Streptococcus spp. FA-1,2 × 10^3
same,Inhibition (growth),Streptococcus spp. FA-1,> 99.99%
same,inhibition at 0.1 %,[1],99 to 100%
CCCCCCC=O [n-Heptaldehyde],"Bacterial Population, Experimental",L. casei,1 × 10^9
same,Inhibition (growth),L. casei,None
same,Growth Inhibition,oral microorganisms [6],little or no growth inhibition
same,"Bacterial Population, Experimental",Streptococcus spp. FA-1,3 × 10^8
same,Inhibition (growth),Streptococcus spp. FA-1,Insignificant
same,inhibition at 0.1 %,[1],75 to 89%
same,Acid Production Inhibition,oral microorganisms [7],excellent acid production inhibition
CCCCCC=O [n-Hexaldehyde],"Bacterial Population, Experimental",L. casei,1 × 10^9
same,Inhibition (growth),L. casei,None
same,Growth Inhibition,oral microorganisms [6],little or no growth inhibition
same,"Bacterial Population, Experimental",Streptococcus spp. FA-1,4 × 10^8
same,Inhibition (growth),Streptococcus spp. FA-1,Insignificant
same,inhibition at 0.1 %,[1],25 to 74%
same,Acid Production Inhibition,oral microorganisms [7],excellent acid production inhibition
